According to patent US12187770B2, “Cyclic peptide from novel bone morphogenetic protein 2, preparation method therefor and application thereof” (Hangzhou Huibo Science and Technology Co., Ltd, priority 2019, dated 2025):
Bridge positions count the residues as written; N and C are the ends. Peptide text beside a SMILES is read from it.

Test: Acute toxicity in animals
Details: in vivo

Compound: CC[C@H](C)[C@@H]1NC(=O)[C@H](C)NC(=O)[C@H](CO)NC(=O)[C@H](CC(C)C)NC(=O)[C@H](CCC(=O)O)NC(=O)[C@H]([C@@H](C)O)NC(=O)[C@@H]2CCCN2C(=O)[C@H](C(C)C)NC(=O)[C@H](CO)NC(=O)[C@H](CO)NC(=O)[C@H](C)NC(=O)[C@H](CCCCN)NC(=O)[C@@H]2CCCN2C(=O)[C@H]([C@@H](C)CC)NC(=O)[C@H](CCCCN)NC(=O)[C@@H](N)CSSC[C@@H](C(=O)O)NC(=O)[C@H](C)NC(=O)[C@H](C(C)C)NC(=O)[C@H]([C@@H](C)CC)NC(=O)[C@H](Cc2c[nH]c3ccccc23)NC(=O)[C@H](CC(=O)O)NC(=O)CNC(=O)CNC(=O)[C@@H]2CCCN2C(=O)CNC(=O)[C@H](CC(C)C)NC(=O)[C@H](Cc2ccc(O)cc2)NC(=O)[C@H](CC(C)C)NC(=O)[C@H](CCSC)NC(=O)[C@H](CO)NC1=O [M-C-BMP2] (H-CKIPKASSVPTELSAISMLYLGPGGDWIVAC-OH; disulfide 1-31)
- acute toxicity in animals: has not been found to have acute toxicity in animals
